Measured values as given in patent US4221800A, “Cycloalkenochromone” (Miles Laboratories, Inc., priority 1977, dated 1980).

Legend:
[1] = tested on: mast cells; experiment: inhibition of mast cell degranulation (spasmogen release) induced by phospholipase A; format: cell-based, rat; conditions: for Relative Potency (in relation to disodium cromoglycate): IC20 relative to disodium cromoglycate, rat mast cells; for IC20: Mast cell, rat peritoneal mast cells, 37° C., ten minutes, read-out: IC20 (inhibition of mast cell degranulation by 20%)
Experimental: The anti-allergic activity was determined by measuring the inhibition of allergic release of spasmogens from mast cells, using the method of Taylor et al., as described in Int. Arch. Allergy, 46, 104(1974).
The inhibition of spasmogen release from mast cells involved obtaining pools of mast cells from normal rats. For each experiment involving pools of mast cells, 10 or more rats were killed by decapitation. The peritoneal fluid from the animals was pooled and the pool dispensed into small polyethylene tubes […] containing 25 μl of a degranulating agent phospholipase A (PL-A), and 25 μl of the drug to be tested. Each treatment was repeated in at least four tubes. All the tubes were incubated at 37° C. for ten minutes. The mast cells were fixed and stained by addition of 50 μl/tube of 2.5% toluidine blue made up in 25% acetic acid. The proportion of mast cells undergoing degranulation was assessed by counting under the microscope. At least 25 mast cells were counted from each tube. The percentage inhibition of degranulation resulting from each treatment was calculated using the formula 100[1-(x-z)/(y-z)], where `x` represents the mean percentage of cells undergoing degranulation in the tubes treated with PL-A and drug, `y` represents the mean percentage of cells undergoing degranulation in the tubes treated with PL-A only, and "z" represents the mean percentage of cells undergoing degranulation in the PL-A-negative tubes.
[See Nature, Vo. 223, 197 (1969)].

[2] = tested on: allergen-induced bronchoconstriction; conditions: asthmatics; reference compound; cited from earlier work
[3] = tested on: allergic release of spasmogens in immediate hypersensitivity reactions; conditions: immediate hypersensitivity reactions in several animals; Nature 223, 197 (1969); cited from earlier work

O=C(O)c1ccc2oc3c(c(=O)c2c1)CCCC3 [Example 1, 6-Carboxy-2,3-cyclohexenochromone]
Relative Potency (in relation to disodium cromoglycate) [1]: 3.1 | IC20 [1]: 2100 nM

O=c1c2c(oc3ccc(-c4nn[nH]n4)cc13)CCCC2 [Example 2, 6-(5-(1H)-tetrazolyl)-2,3-cyclohexenochromone]
Relative Potency (in relation to disodium cromoglycate) [1]: 3.8 | IC20 [1]: 1700 nM

CC1CCc2oc3ccc(C(=O)O)cc3c(=O)c2C1 (centres unmarked) [Example 3, 6-Carboxy-2,3-(4'-methylcyclohexeno)chromone]
Relative Potency (in relation to disodium cromoglycate) [1]: 1.0 | IC20 [1]: 6500 nM

CC1CCc2oc3ccc(-c4nn[nH]n4)cc3c(=O)c2C1 (centres unmarked) [Example 4, 6-(5-(1H)-tetrazolyl)-2,3-(4'-methylcyclohexeno)chromone]
Relative Potency (in relation to disodium cromoglycate) [1]: 1.4 | IC20 [1]: 4500 nM

CCC1CCc2oc3ccc(C(=O)O)cc3c(=O)c2C1 (centres unmarked) [Example 5, Sodium-6-carboxy-2,3-(4'-ethylcyclohexeno)chromone]
Relative Potency (in relation to disodium cromoglycate) [1]: 11.2 | IC20 [1]: 580 nM

CCC1CCc2oc3ccc(-c4nn[nH]n4)cc3c(=O)c2C1 (centres unmarked) [Example 6, Sodium 6-(5-(1H)-tetrazolyl)-2,3-(4'-ethylcyclohexeno)chromone]
Relative Potency (in relation to disodium cromoglycate) [1]: 6.5 | IC20 [1]: 1000 nM

O=C(O)c1ccc2oc3c(c(=O)c2c1)CC(C(=O)O)CC3 (centres unmarked) [Example 7, 6-Carboxy-2,3-(4'-carboxycyclohexeno)chromone]
Relative Potency (in relation to disodium cromoglycate) [1]: 1.0 | IC20 [1]: 6500 nM

CCOC(=O)C1CCc2oc3ccc(-c4nn[nH]n4)cc3c(=O)c2C1 (centres unmarked) [Example 8, 6-(5-(1H)-tetrazolyl)-2,3-(4'-ethoxycarbonylcyclohexeno)chromone]
Relative Potency (in relation to disodium cromoglycate) [1]: 1.6 | IC20 [1]: 4200 nM

O=c1c2c(oc3ccc(-c4nn[nH]n4)cc13)CCCCCC2 [Example 13, 6-(5-(1H)-tetrazolyl)-2,3-cyclooctenochromone]
Relative Potency (in relation to disodium cromoglycate) [1]: 5.0 | IC20 [1]: 1300 nM

O=C(O)c1ccc2oc3c(c(=O)c2c1)CC(OCc1ccccc1)CC3 (centres unmarked) [Example 15, 6-Carboxy-2,3-(4'-benzyloxycyclohexeno)chromone]
Relative Potency (in relation to disodium cromoglycate) [1]: 1.5 | IC20 [1]: 4300 nM

CSc1ccc2oc3c(c(=O)c2c1)CC(C(=O)O)CC3 (centres unmarked) [Example 18, 6-Methylthio-2,3-(4'-carboxycyclohexeno)chromone]
Relative Potency (in relation to disodium cromoglycate) [1]: 5.0 | IC20 [1]: 1300 nM

CS(=O)(=O)c1ccc2oc3c(c(=O)c2c1)CC(C(=O)O)CC3 (centres unmarked) [Example 20, 6-Methylsulfonyl-2,3-(4'-carboxycyclohexeno)chromone]
Relative Potency (in relation to disodium cromoglycate) [1]: 3.4 | IC20 [1]: 1900 nM

COC1CCc2oc3ccc(C(=O)O)cc3c(=O)c2C1 (centres unmarked) [Example 21, 6-Carboxy-2,3-(4'-methoxycyclohexeno)chromone]
Relative Potency (in relation to disodium cromoglycate) [1]: 3.6 | IC20 [1]: 1800 nM

O=C(O)c1ccc2c(=O)c3c(oc2c1)CCCC3 [Example 24, 7-Carboxy-2,3-cyclohexenochromone]
Relative Potency (in relation to disodium cromoglycate) [1]: 3.1 | IC20 [1]: 2100 nM

O=c1c2c(oc3cc(-c4nn[nH]n4)ccc13)CCCC2 [Example 25, 7(5-(1H)-tetrazolyl)-2,3-cyclohexenochromone]
Relative Potency (in relation to disodium cromoglycate) [1]: 7.2 | IC20 [1]: 900 nM

CCC1CCc2oc3cc(C(=O)O)ccc3c(=O)c2C1 (centres unmarked) [Example 26, 7-Carboxy-2,3-(4'-ethylcyclohexeno)chromone]
Relative Potency (in relation to disodium cromoglycate) [1]: > 13.0 | IC20 [1]: < 600 nM

CCC1CCc2oc3cc(-c4nn[nH]n4)ccc3c(=O)c2C1 (centres unmarked) [Example 27, 7-(5-(1H)-tetrazolyl)-2,3-(4'-ethylcyclohexeno)chromone]
Relative Potency (in relation to disodium cromoglycate) [1]: > 13.0 | IC20 [1]: < 600 nM

CC1(c2ccccc2)CCc2oc3ccc(-c4nn[nH]n4)cc3c(=O)c2C1 (centres unmarked) [Example 31, 6-(5-(1H)-tetrazolyl)-2,3-(4'-methyl-4'-phenylcyclohexeno)chromone]
Relative Potency (in relation to disodium cromoglycate) [1]: 4.3 | IC20 [1]: 1500 nM

CCC1CCC2=C(C1)C(=O)c1cc(C(=O)O)ccc1S2(=O)=O (centres unmarked) [Example 32, 6-Carboxy-2,3-(4'-ethylcyclohexeno)thiochromone-1,1-dioxide]
Relative Potency (in relation to disodium cromoglycate) [1]: 10.8 | IC20 [1]: 600 nM

CCC1CCc2sc3ccc(C(=O)O)cc3c(=O)c2C1 (centres unmarked) [Example 33, 6-Carboxy-2,3-(4'-ethylcyclohexeno)thiochromone]
Relative Potency (in relation to disodium cromoglycate) [1]: 1.41 | IC20 [1]: 4600 nM

CCC1CCc2sc3ccc(-c4nn[nH]n4)cc3c(=O)c2C1 (centres unmarked) [Example 35, 6-(5-(1H)-tetrazolyl)-2,3-(4'-ethylcyclohexeno)thiochromone]
Relative Potency (in relation to disodium cromoglycate) [1]: 18,1 | IC20 [1]: 360 nM

O=C(O)c1cc(=O)c2c(OCC(O)COc3cccc4oc(C(=O)O)cc(=O)c34)cccc2o1 [disodium cromogylcate]
inhibition of experimental allergen-induced bronchoconstriction (in words) [2]: effective inhibitor of experimental allergen-induced bronchoconstriction in asthmatics | inhibition of allergic release of spasmogens (in words) [3]: specifically inhibit the allergic release of spasmogens in immediate hypersensitivity reactions in several animals
